Reference: patent US7595173B2, “Low-cost production of peptides” (Dow Global Technologies Inc., priority 2002, dated 2009)
Entries after “also recorded” stand apart in the source; their conditions may differ. Ends that are not written are not given here.

Tested on: E. coli strain BL21 (DE3)
Experiment: Antimicrobial activity: dose-dependent inhibition of E. coli growth (standard growth inhibition assay)
Assay type: cell-based
Procedure: The antimicrobial activity of the cleaved peptides (same samples from Examples 5 and 6) was determined by measuring the dose-dependent inhibition of E. coli growth. The samples were tested for their ability to inhibit the growth of an overnight culture inoculated with E. coli strain BL21 (DE3). AMP samples were diluted serially into water in 96 well plates. Overnight cultures of E. coli BL21 (DE3) cells were diluted 1:50 into LB broth and 250 μl aliquots were transferred into 96-well plates. Each plate was incubated at 37° C. for one hour and then 50 μl of diluted peptide (or water) were added to each well. Each plate was incubated overnight at 37° C. and then the culture density was determined by measuring the apparent absorbance at 600 nm using a Spectromax Plus plate reader.

PFAKKFAKKFKKFAKKFAKFAFAFGD [D2A21 with an additional proline on the N-terminus and a glycine-aspartate dipeptide on its C-terminus]
antimicrobial activity as compared to the D2A21 core/parent peptide: equivalent antimicrobial activity; also recorded: did not adversely affect the activity
